{"source": "patent US9695155B2", "about": "“Herbicidal substituted pyrimidinyloxy benzene compounds” (E. I. DU PONT DE NEMOURS AND COMPANY, priority 2013, dated 2017)", "test_in_all_cases": "Test E preemergence", "key": {"soybean": {"tested_on": "soybean", "format": "in vivo, Glycine max", "details": "for Soybean plant response rating: scale 0 to 100 (0 no effect, 100 complete control); for Plant response rating, Soybean: scale 0 to 100, 0 no effect, 100 complete control", "summary_of_the_method": "(§1)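 Response was scored visually on a 0-100 scale (100 = complete control) versus controls after 14 to 21 days in the greenhouse. Test chemicals, formulated with surfactant in a non-phytotoxic solvent mixture, had been applied preemergence to seeds in silt loam soil or postemergence to 1- to 4-leaf plants in potting medium.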"}, "surinam grass": {"tested_on": "surinam grass", "format": "in vivo, Brachiaria decumbens", "details": "for Surinam Grass plant response rating: scale 0 to 100 (0 no effect, 100 complete control); for Plant response rating, Surinam Grass: scale 0 to 100, 0 no effect, 100 complete control", "summary_of_the_method": "as §1"}, "large (Lg) crabgrass": {"tested_on": "large (Lg) crabgrass", "format": "in vivo, Digitaria sanguinalis", "details": "for Crabgrass, Large plant response rating: scale 0 to 100 (0 no effect, 100 complete control); for Plant response rating, Crabgrass, Large: scale 0 to 100, 0 no effect, 100 complete control", "summary_of_the_method": "as §1"}, "fall panicum": {"tested_on": "fall panicum", "format": "in vivo, Panicum dichotomiflorum", "details": "for Panicum, Fall plant response rating: scale 0 to 100 (0 no effect, 100 complete control); for Plant response rating, Panicum, Fall: scale 0 to 100, 0 no effect, 100 complete control", "summary_of_the_method": "as §1"}, "giant foxtail": {"tested_on": "giant foxtail", "format": "in vivo, Setaria faberii", "details": "for Foxtail, Giant plant response rating: scale 0 to 100 (0 no effect, 100 complete control); for Plant response rating, Foxtail, Giant: scale 0 to 100, 0 no effect, 100 complete control", "summary_of_the_method": "as §1"}, "goosegrass": {"tested_on": "goosegrass", "format": "in vivo, Eleusine indica", "details": "for Goosegrass plant response rating: scale 0 to 100 (0 no effect, 100 complete control); for Plant response rating, Goosegrass: scale 0 to 100, 0 no effect, 100 complete control", "summary_of_the_method": "as §1"}, "ragweed": {"tested_on": "ragweed", "format": "in vivo, Ambrosia elatior", "details": "for Ragweed plant response rating: scale 0 to 100 (0 no effect, 100 complete control); for Plant response rating, Ragweed: scale 0 to 100, 0 no effect, 100 complete control", "summary_of_the_method": "as §1"}, "barnyardgrass": {"tested_on": "barnyardgrass", "format": "in vivo, Echinochloa crus-galli", "details": "for Barnyardgrass plant response rating: scale 0 to 100 (0 no effect, 100 complete control); for Plant response rating, Barnyardgrass: scale 0 to 100, 0 no effect, 100 complete control", "summary_of_the_method": "as §1"}, "sandbur": {"tested_on": "sandbur", "format": "in vivo, Cenchrus echinatus", "details": "for Sandbur plant response rating: scale 0 to 100 (0 no effect, 100 complete control); for Plant response rating, Sandbur: scale 0 to 100, 0 no effect, 100 complete control", "summary_of_the_method": "as §1"}, "Italian ryegrass": {"tested_on": "Italian ryegrass", "format": "in vivo, Lolium multiflorum", "details": "for Ryegrass, Italian plant response rating: scale 0 to 100 (0 no effect, 100 complete control); for Plant response rating, Ryegrass, Italian: scale 0 to 100, 0 no effect, 100 complete control", "summary_of_the_method": "as §1"}, "morningglory": {"tested_on": "morningglory", "format": "in vivo, Ipomoea coccinea", "details": "for Morningglory plant response rating: scale 0 to 100 (0 no effect, 100 complete control); for Plant response rating, Morningglory: scale 0 to 100, 0 no effect, 100 complete control", "summary_of_the_method": "as §1"}, "nightshade": {"tested_on": "nightshade", "format": "in vivo, Solanum ptycanthum", "details": "for Nightshade plant response rating: scale 0 to 100 (0 no effect, 100 complete control); for Plant response rating, Nightshade: scale 0 to 100, 0 no effect, 100 complete control", "summary_of_the_method": "as §1"}, "kochia": {"tested_on": "kochia", "format": "in vivo, Kochia scoparia", "details": "for Kochia plant response rating: scale 0 to 100 (0 no effect, 100 complete control); for Plant response rating, Kochia: scale 0 to 100, 0 no effect, 100 complete control", "summary_of_the_method": "as §1"}, "hairy beggarticks": {"tested_on": "hairy beggarticks", "format": "in vivo, Bidens pilosa", "details": "for Beggarticks plant response rating: scale 0 to 100 (0 no effect, 100 complete control); for Plant response rating, Beggarticks: scale 0 to 100, 0 no effect, 100 complete control", "summary_of_the_method": "as §1"}}, "data": [{"smiles": "FC(F)(F)c1cnn(-c2ccccc2Oc2ncc(Br)cn2)c1", "note": "[Compound 18, 5-bromo-2-[2-[4-(trifluoromethyl)-1H-pyrazol-1-yl]phenoxy]pyrimidine]", "values": [{"measurement": "Soybean plant response rating", "setting": "soybean; 16 g ai/ha", "result": 0}, {"measurement": "Soybean plant response rating", "setting": "soybean; 31 g ai/ha", "result": 0}, {"measurement": "Soybean plant response rating", "setting": "soybean; 62 g ai/ha", "result": 60}, {"measurement": "Plant response rating, Soybean", "setting": "soybean; 125 g ai/ha", "result": 90}, {"measurement": "Plant response rating, Soybean", "setting": "soybean; 250 g ai/ha", "result": 90}, {"measurement": "Surinam Grass plant response rating", "setting": "surinam grass; 16 g ai/ha", "result": 0}, {"measurement": "Surinam Grass plant response rating", "setting": "surinam grass; 31 g ai/ha", "result": 0}, {"measurement": "Surinam Grass plant response rating", "setting": "surinam grass; 62 g ai/ha", "result": 0}, {"measurement": "Plant response rating, Surinam Grass", "setting": "surinam grass; 125 g ai/ha", "result": 0}, {"measurement": "Plant response rating, Surinam Grass", "setting": "surinam grass; 250 g ai/ha", "result": 20}, {"measurement": "Crabgrass, Large plant response rating", "setting": "large (Lg) crabgrass; 16 g ai/ha", "result": 0}, {"measurement": "Crabgrass, Large plant response rating", "setting": "large (Lg) crabgrass; 31 g ai/ha", "result": 0}, {"measurement": "Crabgrass, Large plant response rating", "setting": "large (Lg) crabgrass; 62 g ai/ha", "result": 40}, {"measurement": "Plant response rating, Crabgrass, Large", "setting": "large (Lg) crabgrass; 125 g ai/ha", "result": 100}, {"measurement": "Plant response rating, Crabgrass, Large", "setting": "large (Lg) crabgrass; 250 g ai/ha", "result": 100}, {"measurement": "Panicum, Fall plant response rating", "setting": "fall panicum; 16 g ai/ha", "result": 0}, {"measurement": "Panicum, Fall plant response rating", "setting": "fall panicum; 31 g ai/ha", "result": 50}, {"measurement": "Panicum, Fall plant response rating", "setting": "fall panicum; 62 g ai/ha", "result": 70}, {"measurement": "Plant response rating, Panicum, Fall", "setting": "fall panicum; 125 g ai/ha", "result": 100}, {"measurement": "Plant response rating, Panicum, Fall", "setting": "fall panicum; 250 g ai/ha", "result": 100}, {"measurement": "Foxtail, Giant plant response rating", "setting": "giant foxtail; 16 g ai/ha", "result": 0}, {"measurement": "Foxtail, Giant plant response rating", "setting": "giant foxtail; 31 g ai/ha", "result": 15}, {"measurement": "Foxtail, Giant plant response rating", "setting": "giant foxtail; 62 g ai/ha", "result": 65}, {"measurement": "Plant response rating, Foxtail, Giant", "setting": "giant foxtail; 125 g ai/ha", "result": 95}, {"measurement": "Plant response rating, Foxtail, Giant", "setting": "giant foxtail; 250 g ai/ha", "result": 98}, {"measurement": "Goosegrass plant response rating", "setting": "goosegrass; 16 g ai/ha", "result": 0}, {"measurement": "Goosegrass plant response rating", "setting": "goosegrass; 31 g ai/ha", "result": 0}, {"measurement": "Goosegrass plant response rating", "setting": "goosegrass; 62 g ai/ha", "result": 30}, {"measurement": "Plant response rating, Goosegrass", "setting": "goosegrass; 125 g ai/ha", "result": 90}, {"measurement": "Plant response rating, Goosegrass", "setting": "goosegrass; 250 g ai/ha", "result": 98}, {"measurement": "Ragweed plant response rating", "setting": "ragweed; 16 g ai/ha", "result": 0}, {"measurement": "Ragweed plant response rating", "setting": "ragweed; 31 g ai/ha", "result": 0}, {"measurement": "Ragweed plant response rating", "setting": "ragweed; 62 g ai/ha", "result": 0}, {"measurement": "Plant response rating, Ragweed", "setting": "ragweed; 125 g ai/ha", "result": 0}, {"measurement": "Plant response rating, Ragweed", "setting": "ragweed; 250 g ai/ha", "result": 0}, {"measurement": "Barnyardgrass plant response rating", "setting": "barnyardgrass; 16 g ai/ha, preemergence", "result": 0}, {"measurement": "Barnyardgrass plant response rating", "setting": "barnyardgrass; 31 g ai/ha, preemergence", "result": 0}, {"measurement": "Plant response rating, Barnyardgrass", "setting": "barnyardgrass; Preemergence, 62 g ai/ha", "result": 0}, {"measurement": "Plant response rating, Barnyardgrass", "setting": "barnyardgrass; preemergence, 125 g ai/ha", "result": 5}, {"measurement": "Plant response rating, Barnyardgrass", "setting": "barnyardgrass; preemergence, 250 g ai/ha", "result": 20}, {"measurement": "Sandbur plant response rating", "setting": "sandbur; 16 g ai/ha", "result": 0}, {"measurement": "Sandbur plant response rating", "setting": "sandbur; 31 g ai/ha", "result": 0}, {"measurement": "Sandbur plant response rating", "setting": "sandbur; 62 g ai/ha", "result": 0}, {"measurement": "Plant response rating, Sandbur", "setting": "sandbur; 125 g ai/ha", "result": 5}, {"measurement": "Plant response rating, Sandbur", "setting": "sandbur; 250 g ai/ha", "result": 75}, {"measurement": "Ryegrass, Italian plant response rating", "setting": "Italian ryegrass; 16 g ai/ha", "result": 0}, {"measurement": "Ryegrass, Italian plant response rating", "setting": "Italian ryegrass; 31 g ai/ha", "result": 0}, {"measurement": "Ryegrass, Italian plant response rating", "setting": "Italian ryegrass; 62 g ai/ha", "result": 0}, {"measurement": "Plant response rating, Ryegrass, Italian", "setting": "Italian ryegrass; 125 g ai/ha", "result": 20}, {"measurement": "Plant response rating, Ryegrass, Italian", "setting": "Italian ryegrass; 250 g ai/ha", "result": 35}, {"measurement": "Morningglory plant response rating", "setting": "morningglory; 16 g ai/ha", "result": 0}, {"measurement": "Morningglory plant response rating", "setting": "morningglory; 31 g ai/ha", "result": 0}, {"measurement": "Morningglory plant response rating", "setting": "morningglory; 62 g ai/ha", "result": 0}, {"measurement": "Plant response rating, Morningglory", "setting": "morningglory; 125 g ai/ha", "result": 0}, {"measurement": "Plant response rating, Morningglory", "setting": "morningglory; 250 g ai/ha", "result": 35}, {"measurement": "Nightshade plant response rating", "setting": "nightshade; 16 g ai/ha", "result": 0}, {"measurement": "Nightshade plant response rating", "setting": "nightshade; 31 g ai/ha", "result": 95}, {"measurement": "Nightshade plant response rating", "setting": "nightshade; 62 g ai/ha", "result": 98}, {"measurement": "Plant response rating, Nightshade", "setting": "nightshade; 125 g ai/ha", "result": 100}, {"measurement": "Plant response rating, Nightshade", "setting": "nightshade; 250 g ai/ha", "result": 100}, {"measurement": "Kochia plant response rating", "setting": "kochia; 16 g ai/ha", "result": 0}, {"measurement": "Kochia plant response rating", "setting": "kochia; 31 g ai/ha", "result": 0}, {"measurement": "Kochia plant response rating", "setting": "kochia; 62 g ai/ha", "result": 80}, {"measurement": "Plant response rating, Kochia", "setting": "kochia; 125 g ai/ha", "result": 100}, {"measurement": "Plant response rating, Kochia", "setting": "kochia; 250 g ai/ha", "result": 100}, {"measurement": "Beggarticks plant response rating", "setting": "hairy beggarticks; 16 g ai/ha, preemergence", "result": 0}, {"measurement": "Beggarticks plant response rating", "setting": "hairy beggarticks; 31 g ai/ha, preemergence", "result": 0}, {"measurement": "Plant response rating, Beggarticks", "setting": "hairy beggarticks; Preemergence, 62 g ai/ha", "result": 0}, {"measurement": "Plant response rating, Beggarticks", "setting": "hairy beggarticks; preemergence, 125 g ai/ha", "result": 0}, {"measurement": "Plant response rating, Beggarticks", "setting": "hairy beggarticks; preemergence, 250 g ai/ha", "result": 0}]}]}
